Drawing on patent US5105020A, “Cycloalkane derivatives” (Imperial Chemistries Industries PLC, priority 1988, dated 1992), this text covers IC50 and ED50 for one compound.

Test [1] relates to 5-LO. Kind of test: Test b): heparinised human blood, A23187 challenge, LTB4 radioimmunoassay. Format: cell-based. The method, then: (§1) b) An in vitro assay system involving incubating a test compound with heparinised human blood, prior to challenge with the calcium ionophore A23187 and then indirectly measuring the inhibitory effects on 5-LO by assaying the amount of […] using the specific radioimmunoassay described by Carey and Forder (F. Carey and R.A. Forder, Brit. J. Pharmacol. 1985, 84, 34P) which involves the use of a protein-LTB4 conjugate produced using the procedure of Young et alia (Prostaglandins, 1983, 26(4), 605-613). The effects of a test compound on the enzyme cyclooxygenase (which is involved in the alternative metabolic pathway for arachidonic acid and gives rise to prostaglandins, thromboxanes and related metabolites) may be measured at the same time using the specific radioimmunoassay for thromboxane B2 (TxB2) described by Carey and Forder (see above). This test provides an indication of the effects of a test compound against 5-LO and also cyclooxygenase in the presence of blood cells and proteins. It permits the selectivity of the inhibitory effect on 5-LO or cyclooxygenase to be assessed.

The subject of the next test is cyclooxygenase. Kind of test: Test b): heparinised human blood, A23187 challenge, TxB2 radioimmunoassay. The format is cell-based. The method, then: as §1
Test [2] concerns 5-LO. Kind of test: Test c): ex vivo assay after oral administration, A23187 challenge of blood, LTB4 radioimmunoassay. Format: in vivo. The method, then: c) An ex vivo assay system, which is a variation of test b) above, involving administration of a test compound (usually orally as the suspension produced when a solution of the test compound in dimethylsulphoxide is added to carboxymethylcellulose), blood collection, heparinisation, challenge with A23187 and radioimmunoassay of LTB4 and TxB2. This test provides an indication of the bioavailability of a test compound as an inhibitor of 5-LO or cyclooxygenase.

Turning to `CO[C@@H]1CCC[C@]1(OC)c1cccc(OCc2ccc3ccccc3c2)c1` (relative stereo) [trans-1,2-dimethoxy-1-[3-(naphth-2-ylmethoxy)phenyl]cyclopentane], the IC50 in the test on 5-LO [1] is 200 nM; with cyclooxygenase, over 40000 nM. For the same compound, the ED50 with 5-LO [2] was under 100 mg/kg.
